Source: patent US6737383B1, “Herbicidal oxadiazolidines” (priority 1999, dated 2004)

Legend:
[1] = tested on: bedstraw; assay: Test B pre/postemergence bedstraw; type: in vivo, Galium aparine
Procedure, shortened: (§1)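 Herbicidal effect was estimated by eye on a ten-point control scale after plants spent twelve to sixteen days in a greenhouse following soil or foliar treatment. Foliar sprays targeted plants at one to four leaves; all doses were formulated in a non-phytotoxic solvent with surfactant.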

[2] = tested on: blackgrass; assay: Test B pre/postemergence blackgrass; type: in vivo, Alopecurus myosuroides
Procedure, shortened: as §1

[3] = tested on: surinam grass; assay: Test B pre/postemergence surinam grass; type: in vivo, Brachiaria decumbens
Procedure, shortened: as §1

[4] = tested on: cocklebur; assay: Test B pre/postemergence cocklebur; type: in vivo, Xanthium strumarium
Procedure, shortened: as §1

[5] = tested on: corn; assay: Test B pre/postemergence corn; type: in vivo, Zea mays
Procedure, shortened: as §1

[6] = tested on: giant foxtail; assay: Test B pre/postemergence giant foxtail; type: in vivo, Setaria faberii
Procedure, shortened: as §1

[7] = tested on: morningglory; assay: Test B pre/postemergence morningglory; type: in vivo, Ipomoea hederacea
Procedure, shortened: as §1

[8] = tested on: pigweed; assay: Test B pre/postemergence pigweed; type: in vivo, Amaranthus retroflexus
Procedure, shortened: as §1

[9] = tested on: rape; assay: Test B pre/postemergence rape; type: in vivo, Brassica napus
Procedure, shortened: as §1

[10] = tested on: soybean; assay: Test B pre/postemergence soybean; type: in vivo, Glycine max
Procedure, shortened: as §1

[11] = tested on: sugar beet; assay: Test B pre/postemergence sugar beet; type: in vivo, Beta vulgaris
Procedure, shortened: as §1

[12] = tested on: velvetleaf; assay: Test B pre/postemergence velvetleaf; type: in vivo, Abutilon theophrasti
Procedure, shortened: as §1

[13] = tested on: wheat; assay: Test B pre/postemergence wheat; type: in vivo, Triticum aestivum
Procedure, shortened: as §1

[14] = tested on: wild oat; assay: Test B pre/postemergence wild oat; type: in vivo, Avena fatua
Procedure, shortened: as §1

[15] = tested on: rice; assay: Test B flood test rice; type: in vivo, Oryza sativa
Procedure, shortened: (§2)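 Each value is a visual injury score relative to controls, with 10 meaning complete control and 0 no effect. Evaluation took place twelve to sixteen days after the 2-leaf-stage plants were treated and kept in the greenhouse.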

[16] = tested on: smallflower flatsedge; assay: Test B flood test smallflower flatsedge; type: in vivo, Cyperus difformis
Procedure, shortened: as §2

[17] = Postemergence, Rate 125 g/ha, scale 0 to 10, 0 is no effect, 10 is complete control
[18] = Preemergence, Rate 62 g/ha, scale of 0 to 10 where 0 is no effect and 10 is complete control
[19] = Preemergence, Rate 250 g/ha, scale of 0 to 10 where 0 is no effect and 10 is complete control
[20] = Preemergence, Rate 500 g/ha, scale of 0 to 10 where 0 is no effect and 10 is complete control
[21] = Rate 62 g/ha, Postemergence, scale 0 to 10 (0 no effect, 10 complete control)
[22] = Rate 250 g/ha, Postemergence, scale of 0 to 10 where 0 is no effect and 10 is complete control
[23] = Rate 500 g/ha, Postemergence, scale 0 to 10, 0 no effect, 10 complete control
[24] = Rate 62 g/ha, headed Pre-emergence (flood test species), scale 0 to 10 (0 no effect, 10 complete control)
[25] = Rate 125 g/ha, Pre-emergence, flood test species, scale 0 to 10 where 0 is no effect and 10 is complete control
[26] = Rate 250 g/ha, Pre-emergence, flood-test species, scale 0 to 10, 0 is no effect, 10 is complete control
[27] = Rate 500 g/ha, Pre-emergence, flood test species, scale 0 to 10 (0 no effect, 10 complete control)

Cc1c(-n2c(=O)on(C(=O)N(c3ccc(F)cc3F)C(C)C)c2=O)ccc2ccccc12 [Compound 337]
Plant response rating, Bedstraw [1, 17]: 1 | Bedstraw plant response rating [1, 18]: 0 | Bedstraw plant response rating (0 to 10 scale) ([1]; Preemergence, Rate 125 g/ha): 0 | Bedstraw plant response rating [1, 19]: 0 | Bedstraw plant response rating [1, 20]: 0 | Bedstraw plant response rating [1, 21]: 0 | Plant response rating, Bedstraw [1, 22]: 2 | Plant response rating, Bedstraw [1, 23]: 4 | Plant response rating, Blackgrass [2, 17]: 0 | Blackgrass plant response rating [2, 18]: 0 | Blackgrass plant response rating (0 to 10 scale) ([2]; Preemergence, Rate 125 g/ha): 0 | Blackgrass plant response rating [2, 19]: 2 | Blackgrass plant response rating [2, 20]: 3 | Blackgrass plant response rating [2, 21]: 0 | Plant response rating, Blackgrass [2, 22]: 0 | Plant response rating, Blackgrass [2, 23]: 0 | Plant response rating, B. signalgrass [3, 17]: 0 | B. signalgrass plant response rating [3, 18]: 0 | B. signalgrass plant response rating (0 to 10 scale, 0 is no effect, 10 is complete control) ([3]; Preemergence, Rate 125 g/ha): 0 | B. signalgrass plant response rating [3, 19]: 0 | B. signalgrass plant response rating [3, 20]: 0 | B. signalgrass plant response rating [3, 21]: 0 | Plant response rating, B. signalgrass [3, 22]: 0 | Plant response rating, B. signalgrass [3, 23]: 0 | Plant response rating, Cocklebur [4, 17]: 0 | Cocklebur plant response rating [4, 18]: 0 | Cocklebur plant response rating (0 to 10 scale) ([4]; Preemergence, Rate 125 g/ha): 0 | Cocklebur plant response rating [4, 19]: 0 | Cocklebur plant response rating [4, 20]: 0 | Cocklebur plant response rating [4, 21]: 0 | Plant response rating, Corn [5, 17]: 0 | Corn plant response rating [5, 18]: 0 | Corn plant response rating (0 to 10 scale) ([5]; Preemergence, Rate 125 g/ha): 0 | Corn plant response rating [5, 19]: 0 | Corn plant response rating [5, 20]: 0 | Corn plant response rating [5, 21]: 0 | Plant response rating, Corn [5, 23]: 0 | Plant response rating, Giant foxtail [6, 17]: 0 | Giant foxtail plant response rating [6, 18]: 0 | Giant foxtail plant response rating (0 to 10 scale) ([6]; Preemergence, Rate 125 g/ha): 0 | Giant foxtail plant response rating [6, 19]: 2 | Giant foxtail plant response rating [6, 20]: 9 | Giant foxtail plant response rating [6, 21]: 0 | Plant response rating, Giant foxtail [6, 23]: 0 | Plant response rating, Morningglory [7, 17]: 0 | Morningglory plant response rating [7, 18]: 0 | Morningglory plant response rating (0 to 10 scale) ([7]; Preemergence, Rate 125 g/ha): 0 | Morningglory plant response rating [7, 19]: 0 | Morningglory plant response rating [7, 20]: 0 | Morningglory plant response rating [7, 21]: 0 | Plant response rating, Morningglory [7, 23]: 0 | Plant response rating, Redroot pigweed [8, 17]: 0 | Redroot pigweed plant response rating [8, 18]: 0 | Redroot pigweed plant response rating (0 to 10 scale) ([8]; Preemergence, Rate 125 g/ha): 0 | Redroot pigweed plant response rating [8, 19]: 0 | Redroot pigweed plant response rating [8, 20]: 0 | Redroot pigweed plant response rating [8, 21]: 0 | Plant response rating, Redroot pigweed [8, 23]: 0 | Plant response rating, Rape [9, 17]: 0 | Rape plant response rating [9, 18]: 0 | Rape plant response rating (0 to 10 scale) ([9]; Preemergence, Rate 125 g/ha): 0 | Rape plant response rating [9, 19]: 0 | Rape plant response rating [9, 20]: 0 | Rape plant response rating [9, 21]: 0 | Plant response rating, Rape [9, 23]: 0 | Plant response rating, Soybean [10, 17]: 1 | Soybean plant response rating [10, 18]: 0 | Soybean plant response rating (0 to 10 scale) ([10]; Preemergence, Rate 125 g/ha): 0 | Soybean plant response rating [10, 19]: 0 | Soybean plant response rating [10, 20]: 0 | Soybean plant response rating [10, 21]: 1 | Plant response rating, Soybean [10, 23]: 2 | Plant response rating, Sugarbeets [11, 17]: 0 | Sugarbeets plant response rating [11, 18]: 0 | Sugarbeets plant response rating (0 to 10 scale) ([11]; Preemergence, Rate 125 g/ha): 0 | Sugarbeets plant response rating [11, 19]: 0 | Sugarbeets plant response rating [11, 20]: 0 | Sugarbeets plant response rating [11, 21]: 0 | Plant response rating, Sugarbeets [11, 23]: 0 | Plant response rating, Velvetleaf [12, 17]: 0 | Velvetleaf plant response rating [12, 18]: 0 | Velvetleaf plant response rating (0 to 10 scale) ([12]; Preemergence, Rate 125 g/ha): 0 | Velvetleaf plant response rating [12, 19]: 0 | Velvetleaf plant response rating [12, 20]: 0 | Velvetleaf plant response rating [12, 21]: 0 | Plant response rating, Velvetleaf [12, 23]: 0 | Plant response rating, Wheat [13, 17]: 0 | Wheat plant response rating [13, 18]: 0 | Wheat plant response rating (0 to 10 scale) ([13]; Preemergence, Rate 125 g/ha): 0 | Wheat plant response rating [13, 19]: 0 | Wheat plant response rating [13, 20]: 0 | Wheat plant response rating [13, 21]: 0 | Plant response rating, Wheat [13, 23]: 0 | Plant response rating, Wild oats [14, 17]: 0 | Wild oats plant response rating [14, 18]: 0 | Wild oats plant response rating (0 to 10 scale) ([14]; Preemergence, Rate 125 g/ha): 0 | Wild oats plant response rating [14, 19]: 0 | Wild oats plant response rating [14, 20]: 0 | Wild oats plant response rating [14, 21]: 0 | Plant response rating, Wild oats [14, 23]: 0 | Rice plant response rating [15, 24]: 0 | Rice plant response rating [15, 25]: 0 | Rice plant response rating [15, 26]: 0 | Rice plant response rating [15, 27]: 0 | S. Flatsedge plant response rating [16, 24]: 0 | S. Flatsedge plant response rating [16, 25]: 0 | S. Flatsedge plant response rating [16, 26]: 0 | S. Flatsedge plant response rating [16, 27]: 0
